Data taken from the NIST ThermoML archive (doi:10.1021/je401120a).
± gives the expanded uncertainty stated by the source.

Legend:
[1] = Liquid; for viscosity / speed of sound / mass density / electrical conductivity: 101 kPa; for speed of sound: Pulse-echo method; for mass density: Vibrating tube method; for vapor or sublimation pressure: Ebulliometric method (Recirculating still); for electrical conductivity: Crison conductimeter (model GLP31)
[2] = refractive index (Na D-line) (dimensionless); details: 101.33 kPa, Liquid, Standard Abbe refractometry
[3] = xn = mol fraction of the nth substance listed; details: 101 kPa, Liquid, x2 = 0; for speed of sound: Pulse-echo method; for mass density: Vibrating tube method
[4] = refractive index (Na D-line) (dimensionless); xn = mol fraction of the nth substance listed; details: 101 kPa, Liquid, Standard Abbe refractometry, x2 = 0

CO [methanol]
viscosity ([1]; 293.15 K): 0.5833 ± 0.016 mPa·s
speed of sound ([1]; 293.15 K): 1118.8 ± 1.1 m/s
mass density ([1]; 293.15 K): 791.243 ± 0.15 kg/m3
viscosity ([1]; 303.15 K): 0.507 ± 0.014 mPa·s
speed of sound ([1]; 303.15 K): 1086 ± 1.1 m/s
mass density ([1]; 303.15 K): 781.813 ± 0.15 kg/m3
vapor or sublimation pressure ([1]; 303.15 K): 21.93 ± 0.14 kPa
viscosity ([1]; 313.15 K): 0.4438 ± 0.013 mPa·s
speed of sound ([1]; 313.15 K): 1053.5 ± 1.1 m/s
mass density ([1]; 313.15 K): 772.287 ± 0.15 kg/m3
viscosity ([1]; 323.15 K): 0.3873 ± 0.011 mPa·s
speed of sound ([1]; 323.15 K): 1021.5 ± 1.1 m/s
mass density ([1]; 323.15 K): 762.828 ± 0.15 kg/m3
vapor or sublimation pressure ([1]; 323.15 K): 55.78 ± 0.27 kPa
refractive index ([2]; 293.15 K): 1.32843 ± 0.0004
refractive index ([2]; 303.15 K): 1.32433 ± 0.0004
refractive index ([2]; 313.15 K): 1.32015 ± 0.0004
refractive index ([2]; 323.15 K): 1.3167 ± 0.0004

CO [methanol] + CCC[n+]1ccccc1.F[B-](F)(F)F
speed of sound ([3]; 293.15 K): 1118.8 ± 1.1 m/s
mass density ([3]; 293.15 K): 791.243 ± 0.15 kg/m3
viscosity ([3]; 293.15 K): 0.5833 ± 0.016 mPa·s
speed of sound ([3]; 303.15 K): 1086 ± 1.1 m/s
mass density ([3]; 303.15 K): 781.813 ± 0.15 kg/m3
viscosity ([3]; 303.15 K): 0.507 ± 0.014 mPa·s
speed of sound ([3]; 313.15 K): 1053.5 ± 1.1 m/s
mass density ([3]; 313.15 K): 772.287 ± 0.15 kg/m3
viscosity ([3]; 313.15 K): 0.4438 ± 0.013 mPa·s
speed of sound ([3]; 323.15 K): 1021.5 ± 1.1 m/s
mass density ([3]; 323.15 K): 762.828 ± 0.15 kg/m3
viscosity ([3]; 323.15 K): 0.3873 ± 0.011 mPa·s
refractive index ([4]; 293.15 K): 1.32843 ± 0.0004
refractive index ([4]; 303.15 K): 1.32433 ± 0.0004
refractive index ([4]; 313.15 K): 1.32015 ± 0.0004
refractive index ([4]; 323.15 K): 1.3167 ± 0.0004

CCC[n+]1ccccc1.F[B-](F)(F)F [1-propylpyridinium tetrafluoroborate]
viscosity ([1]; 293.15 K): 160 ± 13 mPa·s
electrical conductivity ([1]; 293.15 K): 0.302 ± 0.006 S/m
speed of sound ([1]; 293.15 K): 1653.9 ± 2.4 m/s
mass density ([1]; 293.15 K): 1256.67 ± 1.4 kg/m3
viscosity ([1]; 303.15 K): 90.75 ± 3.8 mPa·s
electrical conductivity ([1]; 303.15 K): 0.516 ± 0.01 S/m
speed of sound ([1]; 303.15 K): 1629.8 ± 2.4 m/s
mass density ([1]; 303.15 K): 1249.54 ± 1.4 kg/m3
viscosity ([1]; 313.15 K): 56.02 ± 0.89 mPa·s
electrical conductivity ([1]; 313.15 K): 0.799 ± 0.016 S/m
speed of sound ([1]; 313.15 K): 1606.3 ± 2.4 m/s
mass density ([1]; 313.15 K): 1242.43 ± 1.4 kg/m3
viscosity ([1]; 323.15 K): 36.99 ± 0.76 mPa·s
electrical conductivity ([1]; 323.15 K): 1.15 ± 0.023 S/m
speed of sound ([1]; 323.15 K): 1583.3 ± 2.3 m/s
mass density ([1]; 323.15 K): 1235.31 ± 1.4 kg/m3
refractive index ([2]; 293.15 K): 1.44588 ± 0.00057
refractive index ([2]; 303.15 K): 1.44322 ± 0.00057
refractive index ([2]; 313.15 K): 1.44057 ± 0.00057
refractive index ([2]; 323.15 K): 1.43792 ± 0.00057
